In ChEMBL document CHEMBL3044671, “Synthesis and in vitro antimicrobial and anti-tubercular evaluation of some quinoline-based azitidinone and thiazolidinone analogues” (2013):
Values after ≈ are worked out from the molar mass of the structure shown.

Columns and labels:
Assay type in all cases: functional
[1] = system: Aspergillus niger; assay: Antimicrobial activity against Aspergillus niger MTCC 282 assessed as growth inhibition by agar streak dilution method
[2] = system: Candida albicans; assay: Antimicrobial activity against Candida albicans MTCC 183 assessed as diameter of growth zone inhibition by agar streak dilution method
[3] = system: Candida albicans; assay: Antimicrobial activity against Candida albicans MTCC 183 assessed as growth inhibition by agar streak dilution method
[4] = system: Staphylococcus aureus; assay: Antimicrobial activity against Staphylococcus aureus MTCC 96 assessed as growth inhibition by agar streak dilution method
[5] = system: Mycobacterium tuberculosis; assay: Antitubercular activity against Mycobacterium tuberculosis H37Rv assessed as growth inhibition by BACTEC MGIT method
[6] = system: Pseudomonas aeruginosa; assay: Antimicrobial activity against Pseudomonas aeruginosa MTCC 741 assessed as diameter of growth zone inhibition by agar streak dilution method
[7] = system: Aspergillus niger; assay: Antimicrobial activity against Aspergillus niger MTCC 282 assessed as diameter of growth zone inhibition by agar streak dilution method
[8] = system: Bacillus subtilis; assay: Antimicrobial activity against Bacillus subtilis MTCC 430 assessed as growth inhibition by agar streak dilution method
[9] = system: Staphylococcus aureus; assay: Antimicrobial activity against Staphylococcus aureus MTCC 96 assessed as diameter of growth zone inhibition by agar streak dilution method
[10] = system: Bacillus subtilis; assay: Antimicrobial activity against Bacillus subtilis MTCC 430 assessed as diameter of growth zone inhibition by agar streak dilution method
[11] = system: Escherichia coli; assay: Antimicrobial activity against Escherichia coli MTCC 739 assessed as diameter of growth zone inhibition by agar streak dilution method
[12] = system: Pseudomonas aeruginosa; assay: Antimicrobial activity against Pseudomonas aeruginosa MTCC 741 assessed as growth inhibition by agar streak dilution method
[13] = system: Escherichia coli; assay: Antimicrobial activity against Escherichia coli MTCC 739 assessed as growth inhibition by agar streak dilution method

Compound	MIC [1] [µg/mL]	diameter of the inhibition zone (DIZ) [2] [mm]	MIC [3] [µg/mL]	MIC [4] [µg/mL]	MIC [5] [µg/mL]	diameter of the inhibition zone (DIZ) [6] [mm]	diameter of the inhibition zone (DIZ) [7] [mm]	MIC [8] [µg/mL]	diameter of the inhibition zone (DIZ) [9] [mm]	diameter of the inhibition zone (DIZ) [10] [mm]	diameter of the inhibition zone (DIZ) [11] [mm]	MIC [12] [µg/mL]	MIC [13] [µg/mL]
O=C1C(Cl)C(c2cc3ccccc3nc2S)N1c1ccc(F)cc1 (stereo unspecified)	12.5 (≈ 34.8 µM)	24	25 (≈ 69.7 µM)	6.25 (≈ 17.4 µM)	62.5 (≈ 174 µM)	23	25	6.25 (≈ 17.4 µM)	26	25	24	25 (≈ 69.7 µM)	12.5 (≈ 34.8 µM)
O=C1C(Cl)C(c2cc3ccccc3nc2S)N1c1ccccc1[N+](=O)[O-] (stereo unspecified)	25 (≈ 64.8 µM)	21	62.5 (≈ 162 µM)	62.5 (≈ 162 µM)	500 (≈ 1300 µM)	24	23	62.5 (≈ 162 µM)	22	22	21	25 (≈ 64.8 µM)	62.5 (≈ 162 µM)
O=C1C(Cl)C(c2cc3ccccc3nc2S)N1c1ccc([N+](=O)[O-])cc1 (stereo unspecified)	12.5 (≈ 32.4 µM)	20	100 (≈ 259 µM)	50 (≈ 130 µM)	250 (≈ 648 µM)	24	24	25 (≈ 64.8 µM)	24	24	25	12.5 (≈ 32.4 µM)	12.5 (≈ 32.4 µM)
O=C1C(Cl)C(c2cc3ccccc3nc2S)N1c1ccccc1 (stereo unspecified)	100 (≈ 293 µM)	<10	100 (≈ 293 µM)	100 (≈ 293 µM)	1000 (≈ 2930 µM)	<10	<10	100 (≈ 293 µM)	17	17	<10	100 (≈ 293 µM)	100 (≈ 293 µM)
O=C1CSC(c2cc3ccccc3nc2S)N1c1cccc(Cl)c1 (stereo unspecified)	50 (≈ 134 µM)	22	62.5 (≈ 168 µM)	6.25 (≈ 16.8 µM)	125 (≈ 335 µM)	25	25	3.12 (≈ 8.37 µM)	24	25	22	12.5 (≈ 33.5 µM)	50 (≈ 134 µM)
Cc1ccc(N2C(=O)C(Cl)C2c2cc3ccccc3nc2S)cc1 (stereo unspecified)	100 (≈ 282 µM)	15	100 (≈ 282 µM)	100 (≈ 282 µM)	250 (≈ 704 µM)	18	17	100 (≈ 282 µM)	18	19	18	100 (≈ 282 µM)	100 (≈ 282 µM)
O=C1CSC(c2cc3ccccc3nc2S)N1c1ccccc1[N+](=O)[O-] (stereo unspecified)	50 (≈ 130 µM)	22	62.5 (≈ 163 µM)	62.5 (≈ 163 µM)	250 (≈ 652 µM)	23	23	62.5 (≈ 163 µM)	22	23	23	25 (≈ 65.2 µM)	62.5 (≈ 163 µM)
